# Experimental data as given in patent US5254682A, “Cyclic renin inhibitors containing 3(S)-amino-4-cyclohexyl-2(R)-hydroxy-butanoic acid or 4-cyclo-hexyl-(2R, 3S)-dihydroxybutanoic acid or related analogs” (Merck & Co., Inc., priority 1991, dated 1993).
# Read-outs that look alike come from different tables or passages of the source. Where a SMILES comes first, the peptide text is derived from it. [ ]: non-standard residue; d: D form. The star is where a group is joined. Sta = CC(C)C[C@H](N)[C@@H](O)CC(=O)O; Isovaleryl = CC(C)CC(=O)*
# Experiments:
# [1] = amide bond, 2 steps
# [2] = system: sodium-deficient Rhesus monkeys; assay: intravenous evaluation of renin inhibitors in conscious sodium-deficient Rhesus monkeys (blood pressure lowering); format: in vivo; details: i.v. bolus
# Excerpt: The following methods were used for in vivo evaluation of the renin inhibitors of Formula I: Intravenous evaluation of renin inhibitors in concious sodium-deficient Rhesus monkeys: Rhesus monkeys, male and female, weighing 2.6-4.5 Kg, were surgically prepared with chronic arterial and venous catheters and vascular access ports for direct monitoring of mean arterial pressure (MAP) and heart rate (HR). The animals were maintained on a low sodium diet (1.2 mmol Na/day) plus fruit for a week, and administered LASIX (furosemide) at 2.5 mg/Kg, intramuscularly the evening prior to the experiment. The animals had been trained to sit quietly in the chairs with water ad libium for the duration of the experiment. The inhibitors were administered by bolus injection using 0.5% acetic acid-5% dextrose in water as the vehicle (0.4 ml/Kg), and MAP and HR were measured. Blood samples were withdrawn at different time intervals beginning at the nadir of hypotensive response. PRA was determined as described above. […] A projected ED50 dose for each inhibitor was calculated using the following formula: ED50 (Test Inhibitor, umoles/Kg)=ED50 (SCRIP) X [IC50 (Test Inhibitor)/IC50 (SCRIP)], where the IC50 values were determined against human plasma renin. […] Percent inhibition of monkey PRA, changes in MAP and HR were calculated and plotted against time. […]
smiles,measurement,setting,value
CC(C)(C)OC(=O)N[C@H]1CNC(=O)CCCCOC(=O)[C@H](O)[C@H](CC2CCCCC2)NC1=O,"ring closure, yield of all isomers","[1]; from CC(C)(C)OC(=O)N[C@@H](CNC(=O)OCc1ccccc1)C(=O)N[C@@H](CC1CCCCC1)[C@@H](O)C(=O)OCCCCC(=O)OCc1ccccc1, DPPA, triethylamine",27%
"CC(C)CC(=O)N[C@@H](Cc1c[nH]cn1)C(=O)N1CCC[C@H]1C(=O)N[C@@H](Cc1ccccc1)C(=O)N[C@@H](Cc1c[nH]cn1)C(=O)N[C@@H](CC(C)C)[C@@H](O)CC(=O)N[C@@H](CC(C)C)C(=O)N[C@@H](Cc1ccccc1)C(N)=O [SCRIP, Iva-His-Pro-Phe-His-Sta-Leu-Phe-NH2] (Isovaleryl-HPFH[Sta]LF-NH2)",ED50 (i.v. dose required to lower blood pressure by 50% of the maximal response),[2],0.039 µmol/kg
CC(C)CC1CNC(=O)CC[C@H](NC(=O)OCc2ccccc2)C(=O)N[C@@H](CC2CCCCC2)[C@@H](O)C(=O)O1 (stereo partly shown),"ring closure, yield of all isomers","[1]; from CC(C)CC(CNC(=O)CC[C@H](NC(=O)OCc1ccccc1)C(=O)OC(C)(C)C)OC(=O)[C@@H]1OC(C)(C)N(C(=O)OC(C)(C)C)[C@H]1CC1CCCCC1, THF",51%
O=C(N[C@H]1CSCCC[C@H](CN2CCOCC2)OC(=O)[C@H](O)[C@H](CC2CCCCC2)NC1=O)OCc1ccccc1,"ring closure, yield of all isomers",[1]; from N[C@@H](CC1CCCCC1)[C@@H](O)C(=O)O[C@H](CCCSC[C@H](NC(=O)OCc1ccccc1)C(=O)O)CN1CCOCC1,38%
O=C(N[C@H]1CSCCCCOC(=O)[C@H](O)[C@H](CC2CCCCC2)NC1=O)OCc1ccccc1,"ring closure, yield of all isomers",[1]; from N[C@@H](CC1CCCCC1)[C@@H](O)C(=O)OCCCCSC[C@H](NC(=O)OCc1ccccc1)C(=O)O,34%
O=C1CC[C@H](NC(=O)OCc2ccccc2)C(=O)N[C@@H](CC2CCCCC2)[C@@H](O)C(=O)OC(CN2CCOCC2)CN1 (stereo partly shown),"ring closure, yield of all isomers",[1]; from CC(C)(C)OC(=O)[C@H](CCC(=O)NCC(CN1CCOCC1)OC(=O)[C@@H]1OC(C)(C)N(C(=O)OC(C)(C)C)[C@H]1CC1CCCCC1)NC(=O)OCc1ccccc1,61%
CC(C)(C)OC(=O)N[C@H]1CCC(=O)NCCCC2(OCCO2)[C@H](O)[C@H](CC2CCCCC2)NC1=O,"ring closure, yield of all isomers","[1]; from CC(C)(C)OC(=O)N[C@@H](CCC(=O)OCc1ccccc1)C(=O)N[C@@H](CC1CCCCC1)[C@@H](O)C1(CCCN=[N+]=[N-])OCCO1, DPPA, triethylamine",30%
CC1CC(=O)NCCOC(=O)[C@H](O)[C@H](CC2CCCCC2)NC(=O)[C@H]1NC(=O)OCc1ccccc1 (stereo partly shown),"ring closure, yield of all isomers",[1]; from CC(CC(=O)NCCOC(=O)[C@@H]1OC(C)(C)N(C(=O)OC(C)(C)C)[C@H]1CC1CCCCC1)[C@H](NC(=O)OCc1ccccc1)C(=O)OCC[Si](C)(C)C,62%
CCCCC1CNC(=O)CC[C@H](NC(=O)OCc2ccccc2)C(=O)N[C@@H](CC2CCCCC2)[C@@H](O)C(=O)O1 (stereo partly shown),"ring closure, yield of all isomers","[1]; from CCCCC(CNC(=O)CC[C@H](NC(=O)OCc1ccccc1)C(=O)OC(C)(C)C)OC(=O)[C@@H]1OC(C)(C)N(C(=O)OC(C)(C)C)[C@H]1CC1CCCCC1, EDC/HOBt",54%
O=C1CC[C@H](NC(=O)OCc2ccccc2)C(=O)N[C@@H](CC2CCCCC2)[C@@H](O)C(=O)OC(CN2CCOCC2)CO1 (stereo partly shown),"ring closure, yield of all isomers","[1]; from CC(C)(C)OC(=O)[C@H](CCC(=O)OCC(CN1CCOCC1)OC(=O)[C@@H]1OC(C)(C)N(C(=O)OC(C)(C)C)[C@H]1CC1CCCCC1)NC(=O)OCc1ccccc1, THF",32%
